Like-named read-outs stand apart in the source and are kept apart here.

The values that follow come from patent publication US7858635B2 (priority 2005, dated 2010).

One experiment addresses T1, M4 muscarinic receptor (Homo sapiens, UniProt P08173).
T1 construct: expressed in transfected cells; host or cells: CHO cells (M4-CHO, under puromycin, zeocin and blasticidin selection)
T1 sequence (P08173 1-479): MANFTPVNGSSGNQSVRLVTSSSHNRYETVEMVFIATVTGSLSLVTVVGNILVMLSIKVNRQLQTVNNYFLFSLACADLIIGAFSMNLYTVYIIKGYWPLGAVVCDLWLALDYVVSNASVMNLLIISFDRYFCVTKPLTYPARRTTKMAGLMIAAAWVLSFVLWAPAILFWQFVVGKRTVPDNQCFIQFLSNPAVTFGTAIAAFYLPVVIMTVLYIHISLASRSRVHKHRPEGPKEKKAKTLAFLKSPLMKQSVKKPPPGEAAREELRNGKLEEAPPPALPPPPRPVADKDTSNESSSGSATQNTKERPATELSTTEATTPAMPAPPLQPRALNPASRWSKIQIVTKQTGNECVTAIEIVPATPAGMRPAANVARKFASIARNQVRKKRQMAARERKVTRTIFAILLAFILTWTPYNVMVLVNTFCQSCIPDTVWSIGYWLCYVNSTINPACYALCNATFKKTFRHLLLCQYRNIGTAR
Kind of experiment: Functional mobilization of intracellular calcium (FLIPR, Fluo-3), M4-CHO cells. The format is cell-based. The note with it: for Emax: 100% efficacy is the maximum response obtained with the Carbachol control, read-out: M4 Efficacy. The gist of the method:
(§1)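 Intracellular calcium was tracked by fluorescence (488/540 nm) over 60 sec after compound addition to dye-loaded CHO cells expressing the receptor. Inhibitory activity used a 15 min pre-incubation before carbachol at the subtype EC80.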

The target of a further experiment is T2, M1 muscarinic receptor (Homo sapiens, UniProt P11229).
T2 construct: expressed in transfected cells; host or cells: CHO cells (M1-CHO, under zeocin and G418 selection)
T2 sequence (P11229 1-460): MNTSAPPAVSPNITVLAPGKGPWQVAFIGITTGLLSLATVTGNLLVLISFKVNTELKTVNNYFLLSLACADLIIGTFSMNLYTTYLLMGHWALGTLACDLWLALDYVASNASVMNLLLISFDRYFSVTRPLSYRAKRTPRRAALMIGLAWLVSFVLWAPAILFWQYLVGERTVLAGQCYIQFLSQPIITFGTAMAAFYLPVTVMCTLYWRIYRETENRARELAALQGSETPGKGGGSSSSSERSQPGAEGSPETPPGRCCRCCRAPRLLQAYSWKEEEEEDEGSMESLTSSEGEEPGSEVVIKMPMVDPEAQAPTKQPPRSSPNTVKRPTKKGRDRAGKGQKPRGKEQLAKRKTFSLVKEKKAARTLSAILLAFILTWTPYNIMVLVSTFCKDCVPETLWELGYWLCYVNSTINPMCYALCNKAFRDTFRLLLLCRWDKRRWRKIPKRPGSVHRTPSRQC
The experiment is described as follows: Functional mobilization of intracellular calcium (FLIPR, Fluo-3), M1-CHO cells. The format is cell-based. The note with it: for Emax: 100% efficacy is the maximum response obtained with the Carbachol control, read-out: M1 Efficacy. The method in brief:
as §1

Setting [1] is: compound nos. 1-454, M4-CHO cells, calcium mobilization.
[2] abbreviates: compound nos. 1-454, M1-CHO cells, calcium mobilization.

For the compound `COC(=O)N1C2CCC1CC(N1CCC3(CC1)CN(C1CCN(c4nc(C)ns4)CC1)c1ccccc13)C2` (centres unmarked) [compound 490], the Emax on M4 muscarinic receptor (compound nos. 455-509) is 25 to 100%; at M1 muscarinic receptor (compound nos. 455-509), above 100%. Further, the “M4 Activity” value at M4 muscarinic receptor (compounds 455-509) was “++ (activity was measured to be between 2.0 μM and 5.0 μM)”. Further, the “M1 Activity” value at M1 muscarinic receptor (compounds 455-509) is “++ (activity was measured to be between 2.0 μM and 5.0 μM)”.

For `CCOC(=O)N1C2CCC1CC(N1CCC3(CC1)CN(C(=O)c1cc(C)n(C)n1)c1ccc(F)cc13)C2` (centres unmarked) [compound 50], the results for the Emax at M4 muscarinic receptor (compound nos. 1-454) and at M1 muscarinic receptor (compound nos. 1-454) were above 70% and above 85%, respectively. For the same compound, the “M4 Activity” value on M4 muscarinic receptor (setting [1]) was “++ (activity was measured to be between 0.1 μM and 4.0 μM)”. The “M1 Activity” value at M1 muscarinic receptor (setting [2]) is given as “+++ (activity was measured to be less than or equal to 0.7 μM)”.

On to `CC(=O)N1CC2(CCN(C3CCN(C(=O)O[C@@H]4CCOC4)CC3)CC2)c2cc(F)ccc21` [compound 424], for which, on M4 muscarinic receptor (compound nos. 1-454), the “M4 Activity” value is listed as “+ (activity was measured to be greater than or equal to 4.0 μM)” and the Emax is below 55%. Moreover, at M1 muscarinic receptor (compound nos. 1-454), the “M1 Activity” value is given as “+ (activity was measured to be greater than or equal to 3.0 μM)” and the Emax was below 65%.

Turning to `CC(C)OC(=O)N1C2CCC1CC(N1CCC3(CC1)COc1ccc(F)cc13)C2` (centres unmarked) [compound 320], the Emax on M4 muscarinic receptor (compound nos. 1-454) is below 55%; on M1 muscarinic receptor (compound nos. 1-454) it was 65 to 85%. Moreover, the “M4 Activity” value at M4 muscarinic receptor (setting [1]) is reported as “+ (activity was measured to be greater than or equal to 4.0 μM)”. In addition, the “M1 Activity” value at M1 muscarinic receptor (setting [2]) was “++ (activity was measured to be between 0.7 μM and 3.0 μM)”.

On to `COCCOC(=O)N1CCC(N2CCC3(CC2)CN(C(C)=O)c2ccc(C)cc23)CC1` [compound 293], for which the Emax on M4 muscarinic receptor (compound nos. 1-454) was above 70%; at M1 muscarinic receptor (compound nos. 1-454), above 85%. Also, the “M4 Activity” value on M4 muscarinic receptor (setting [1]) is “+++ (activity was measured to be less than or equal to 0.1 μM)”. Further, the “M1 Activity” value on M1 muscarinic receptor (setting [2]) was “++ (activity was measured to be between 0.7 μM and 3.0 μM)”.

In the case of `Fc1ccc2c(c1)C1(CCN(C[C@H]3C[C@H]4CC[C@H]3O4)CC1)CN2` [compound 300], the Emax at M4 muscarinic receptor (compound nos. 1-454) was below 55%; on M1 muscarinic receptor (compound nos. 1-454), 65 to 85%. Moreover, the “M4 Activity” value at M4 muscarinic receptor (setting [1]) was “+ (activity was measured to be greater than or equal to 4.0 μM)”. The “M1 Activity” value at M1 muscarinic receptor (setting [2]) was “++ (activity was measured to be between 0.7 μM and 3.0 μM)”.

As to `CC(C)NC(=O)N1C2CCC1CC(N1CCC3(CC1)COc1ccc(F)cc13)C2` (centres unmarked) [compound 289], the Emax on M4 muscarinic receptor (compound nos. 1-454) is below 55%; on M1 muscarinic receptor (compound nos. 1-454), below 65%. Further, the “M4 Activity” value on M4 muscarinic receptor (setting [1]) is reported as “+ (activity was measured to be greater than or equal to 4.0 μM)”. Besides, the “M1 Activity” value at M1 muscarinic receptor (setting [2]) is recorded as “+++ (activity was measured to be less than or equal to 0.7 μM)”.

On to `CC(=O)CN1CC2(CCN(C[C@@H]3C[C@H]4C=C[C@H]3C4)CC2)c2cc(F)ccc21` [compound 385], for which, at M4 muscarinic receptor (compound nos. 1-454), the “M4 Activity” value is on record as “+ (activity was measured to be greater than or equal to 4.0 μM)” and the Emax was below 55%. In addition, on M1 muscarinic receptor (compound nos. 1-454), the “M1 Activity” value was “++ (activity was measured to be between 0.7 μM and 3.0 μM)”; the Emax was 65 to 85%.

In the case of `COCCOC(=O)N1C2CCC1CC(N1CCC3(CC1)C(=O)Nc1ccccc13)C2` (centres unmarked) [compound 71], the Emax was below 55% at M4 muscarinic receptor (compound nos. 1-454) and below 65% on M1 muscarinic receptor (compound nos. 1-454). The “M4 Activity” value on M4 muscarinic receptor (setting [1]) was “++ (activity was measured to be between 0.1 μM and 4.0 μM)”. Moreover, the “M1 Activity” value at M1 muscarinic receptor (setting [2]) was “+++ (activity was measured to be less than or equal to 0.7 μM)”.

With `CC(=O)N[C@@H]1CC2(CCN([C@H]3C[C@@H]4CC[C@H]3C4)CC2)c2ccccc21` [compound 171], the Emax was 55 to 70% at M4 muscarinic receptor (compound nos. 1-454) and above 85% on M1 muscarinic receptor (compound nos. 1-454). At M4 muscarinic receptor (setting [1]), the “M4 Activity” value was “+ (activity was measured to be greater than or equal to 4.0 μM)”. The “M1 Activity” value at M1 muscarinic receptor (setting [2]) is “++ (activity was measured to be between 0.7 μM and 3.0 μM)”.

With `COCCOC(=O)N1C2CCC1CC(N1CCC3(CC1)COc1ccc(F)cc13)C2` (centres unmarked) [compound 378], at M4 muscarinic receptor (compound nos. 1-454), the “M4 Activity” value was “+ (activity was measured to be greater than or equal to 4.0 μM)” and the Emax lay in the range of 55 to 70%. Also, at M1 muscarinic receptor (compound nos. 1-454), the “M1 Activity” value is “++ (activity was measured to be between 0.7 μM and 3.0 μM)”; the Emax was 65 to 85%.

Consider `CCOC(=O)N1CCC(N2CCC3(CC2)CN(C(C)=O)c2ccc(-c4ccc(NC(C)=O)cc4)cc23)CC1` [compound 10], for which the Emax lay in the range of 55 to 70% at M4 muscarinic receptor (compound nos. 1-454) and 65 to 85% at M1 muscarinic receptor (compound nos. 1-454). For the same compound, the “M4 Activity” value on M4 muscarinic receptor (setting [1]) was “++ (activity was measured to be between 0.1 μM and 4.0 μM)”. Further, at M1 muscarinic receptor (setting [2]), the “M1 Activity” value was “++ (activity was measured to be between 0.7 μM and 3.0 μM)”.

As for `Cc1cnc(N2CCC(N3CCC4(CC3)CN(C(=O)N(C)C)c3ccccc34)CC2)cn1` [compound 468], the results for the Emax at M4 muscarinic receptor (compound nos. 455-509) and on M1 muscarinic receptor (compound nos. 455-509) were 25 to 100% and above 100%, respectively. Also, on M4 muscarinic receptor (compounds 455-509), the “M4 Activity” value was “++ (activity was measured to be between 2.0 μM and 5.0 μM)”. Also, the “M1 Activity” value on M1 muscarinic receptor (compounds 455-509) is “+ (activity was measured to be greater than or equal to 5.0 μM)”.

For the compound `Cc1ccc2c(c1)C1(CCN(C3CC4CCC3C4)CC1)CN2S(=O)(=O)c1ccccc1` (centres unmarked) [compound 354], the Emax at M4 muscarinic receptor (compound nos. 1-454) was 55 to 70%; on M1 muscarinic receptor (compound nos. 1-454) it was 65 to 85%. For the same compound, the “M4 Activity” value on M4 muscarinic receptor (setting [1]) is “+ (activity was measured to be greater than or equal to 4.0 μM)”. Also, the “M1 Activity” value on M1 muscarinic receptor (setting [2]) is “+ (activity was measured to be greater than or equal to 3.0 μM)”.

With `O=C(O[C@H]1CCOC1)N1C2CCC1CC(N1CCC3(CC1)C(=O)Nc1ccccc13)C2` (some centres unmarked) [compound 301], the Emax is below 55% at M4 muscarinic receptor (compound nos. 1-454) and below 65% on M1 muscarinic receptor (compound nos. 1-454). Besides, the “M4 Activity” value on M4 muscarinic receptor (setting [1]) is listed as “+ (activity was measured to be greater than or equal to 4.0 μM)”. The “M1 Activity” value on M1 muscarinic receptor (setting [2]) is “+ (activity was measured to be greater than or equal to 3.0 μM)”.

For the compound `Cc1ccc2c(c1)C1(CCN(C3CC4CCC3C4)CC1)CN2C(=O)c1cc(C)on1` (centres unmarked) [compound 208], the Emax is below 55% on M4 muscarinic receptor (compound nos. 1-454) and below 65% on M1 muscarinic receptor (compound nos. 1-454). Also, the “M4 Activity” value at M4 muscarinic receptor (setting [1]) is reported as “+ (activity was measured to be greater than or equal to 4.0 μM)”. Further, the “M1 Activity” value on M1 muscarinic receptor (setting [2]) is “++ (activity was measured to be between 0.7 μM and 3.0 μM)”.

Take `CN(C)C(=O)N1CC2(CCN(C3CCN(c4nccnc4C#N)CC3)CC2)c2cc(F)ccc21` [compound 480]: the Emax on M4 muscarinic receptor (compound nos. 455-509) and on M1 muscarinic receptor (compound nos. 455-509) was 25 to 100% each time. In addition, the “M4 Activity” value on M4 muscarinic receptor (compounds 455-509) was “++ (activity was measured to be between 2.0 μM and 5.0 μM)”. Besides, at M1 muscarinic receptor (compounds 455-509), the “M1 Activity” value was “++ (activity was measured to be between 2.0 μM and 5.0 μM)”.

For the compound `CCOC(=O)N1CCC(N2CCC3(CC2)CN(C(C)=O)c2ccc(C4CC4)cc23)CC1` [compound 245], the Emax at M4 muscarinic receptor (compound nos. 1-454) is above 70%; on M1 muscarinic receptor (compound nos. 1-454) it was below 65%. The “M4 Activity” value on M4 muscarinic receptor (setting [1]) was “++ (activity was measured to be between 0.1 μM and 4.0 μM)”. The “M1 Activity” value at M1 muscarinic receptor (setting [2]) is “++ (activity was measured to be between 0.7 μM and 3.0 μM)”.

`CCOC(=O)N1CCC(N2CCC3(CC2)CN(C(=O)c2ccccc2F)c2ccc(F)cc23)CC1` [compound 267]: the Emax at M4 muscarinic receptor (compound nos. 1-454) was below 55%; on M1 muscarinic receptor (compound nos. 1-454), below 65%. Further, the “M4 Activity” value on M4 muscarinic receptor (setting [1]) is “+ (activity was measured to be greater than or equal to 4.0 μM)”. Besides, the “M1 Activity” value on M1 muscarinic receptor (setting [2]) is given as “+ (activity was measured to be greater than or equal to 3.0 μM)”.

With `CCOC(=O)N1CCC(N2CCC3(CC2)CN(C(C)=O)c2ccc(-c4ccccc4F)cc23)CC1` [compound 146], the Emax on M4 muscarinic receptor (compound nos. 1-454) was above 70%; on M1 muscarinic receptor (compound nos. 1-454) it was above 85%. For the same compound, the “M4 Activity” value on M4 muscarinic receptor (setting [1]) was “+++ (activity was measured to be less than or equal to 0.1 μM)”. Moreover, the “M1 Activity” value at M1 muscarinic receptor (setting [2]) was “+++ (activity was measured to be less than or equal to 0.7 μM)”.
